Several values for one entry are separate records, joined by “and”; a condition that tells them apart may be missing. Identical values can stand only once. ± gives the expanded uncertainty stated by the source.
Conditions: Liquid

With `CC(C)(C)O` [2-methylpropan-2-ol] as the compound, how does the “vapor or sublimation pressure” value (322.78 K) read?
Its value is 23.07 ± 0.35 kPa.

For `CCC(C)O` (centres undefined) [butan-2-ol], which “vapor or sublimation pressure” value (323.11 K) is on record?
The value was 10.57 ± 0.34 kPa.

For `CO` [methanol], which “vapor or sublimation pressure” value (323.14 K) is on record?
The value was 55.57 ± 0.41 kPa.

Which “vapor or sublimation pressure” value (323.17 K) does the source give for `CCO` [ethanol] here?
The value was 29.27 ± 0.36 kPa.

What does the source list for `C=C(C)C` [2-methylpropene]?
vapor or sublimation pressure (322.79 K): 605.14 ± 2 kPa; vapor or sublimation pressure (323.11 K): 608.94 ± 2 kPa; vapor or sublimation pressure (323.14 K): 608.84 ± 2 kPa and 609.14 ± 2 kPa; vapor or sublimation pressure (323.15 K): 611.04 ± 2.1 kPa

For `CC(C)O` [propan-2-ol], which “vapor or sublimation pressure” value (323.16 K) is on record?
Its value is 23.47 ± 0.35 kPa.

Reference: the NIST ThermoML archive (doi:10.1021/je034136z)
